Reference: patent US11638716B2, “Compounds, compositions, and methods for the treatment of disease” (F-star Therapeutics, Inc., priority 2017, dated 2023)

How the values were obtained:
Assay type in all cases: cell-based
NF-κβ = assay: In vitro induction of NF-κβ in THP1 dual cells (SEAP reporter)
Method: (§1) Example 2. In Vitro Induction of IRF and NF-κβ in THP1 Cells
(§2) THP1 dual cells grown in complete media were treated with various concentrations of a compound of the present disclosure or DMSO control. Dual cells carry both secreted embryonic alkaline phosphatase (SEAP) reporter gene under the control of an IFN-β minimal promoter fused to five copies of the NF-kB consensus transcriptional response element to measure NF-kB activity and Lucia reporter gene under the control of an ISG54 minimal promoter to measure IRF activity. After 20 h incubation, IRF activity was assessed using QUANTI-luc to measure levels of Lucia and NF-kB activity was determined by measure SEAP levels at 620-655 nm. % induction was calculated from fold change in luminescence/absorbance compared to DMSO treated sample. […] EC50 values were generated by curve fit in Xlfit.
(§3) Cells grown in complete media were treated with various concentrations of a compound of the disclosure or DMSO control. Dual cells carry both secreted embryonic alkaline phosphatase (SEAP) reporter gene under the control of an IFN-β minimal promoter fused to five copies of the NF-kB consensus transcriptional response element to measure NF-kB activity and Lucia reporter gene under the control of an ISG54 minimal promoter to measure IRF activity. After 20 h incubation, IRF activity was assessed using QUANTI-luc to measure levels of Lucia and NF-kB activity was determined by measure SEAP levels at 620-655 nm. % induction was calculated from fold change in luminescence/absorbance compared to DMSO treated sample. EC50 values are generated by curve fit in Xlfit.

IRF = assay: In vitro induction of IRF in THP1 dual cells (Lucia reporter, ISG54 promoter)
Method: as §1, §2, §3

STING KO cells = assay: IRF and NF-kB reporter activity in STING KO cells; conditions: 20 hours
Method: FIG. 21 depicts cells stably expressing both or either one of the reporters to measure IRF and NF-kB activity were treated with a range of concentrations of compound 1 or DMSO control for 20 hours. IRF activity was assessed using QUANTI-luc to measure levels of Lucia and NF-kB activity was determined by measure SEAP levels at 620-655 nm. % induction was calculated from fold change in luminescence/absorbance compared to DMSO treated sample. EC50 values are generated by curve fit in Xlfit.
(§4) FIG. 22 depicts cells stably expressing both or either one of the reporters to measure IRF and NF-kB activity were treated with a range of concentrations of compound 2 or DMSO control for 20 hours. IRF activity was assessed using QUANTI-luc to measure levels of Lucia and NF-kB activity was determined by measure SEAP levels at 620-655 nm. % induction was calculated from fold change in luminescence/absorbance compared to DMSO treated sample. EC50 values are generated by curve fit in Xlfit.
(§5) FIG. 24 depicts cells stably expressing both or either one of the reporters to measure IRF and NF-kB activity were treated with a range of concentrations of compound 3 or DMSO control for 20 hours. IRF activity was assessed using QUANTI-luc to measure levels of Lucia and NF-kB activity was determined by measure SEAP levels at 620-655 nm. % induction was calculated from fold change in luminescence/absorbance compared to DMSO treated sample. EC50 values are generated by curve fit in Xlfit.
(§6) FIG. 27 depicts cells stably expressing both or either one of the reporters to measure IRF and NF-kB activity were treated with a range of concentrations of compound 4 or DMSO control for 20 hours. IRF activity was assessed using QUANTI-luc to measure levels of Lucia and NF-kB activity was determined by measure SEAP levels at 620-655 nm. % induction was calculated from fold change in luminescence/absorbance compared to DMSO treated sample. EC50 values are generated by curve fit in Xlfit.
as §3

wt-mSTING = target: T1, wt-mSTING (Mus musculus, UniProt Q3TBT3); assay: IRF/NF-kB reporter cells, wt-mSTING; conditions: 20 hours
T1 construct: endogenous in cells
T1 sequence (Q3TBT3 1-378): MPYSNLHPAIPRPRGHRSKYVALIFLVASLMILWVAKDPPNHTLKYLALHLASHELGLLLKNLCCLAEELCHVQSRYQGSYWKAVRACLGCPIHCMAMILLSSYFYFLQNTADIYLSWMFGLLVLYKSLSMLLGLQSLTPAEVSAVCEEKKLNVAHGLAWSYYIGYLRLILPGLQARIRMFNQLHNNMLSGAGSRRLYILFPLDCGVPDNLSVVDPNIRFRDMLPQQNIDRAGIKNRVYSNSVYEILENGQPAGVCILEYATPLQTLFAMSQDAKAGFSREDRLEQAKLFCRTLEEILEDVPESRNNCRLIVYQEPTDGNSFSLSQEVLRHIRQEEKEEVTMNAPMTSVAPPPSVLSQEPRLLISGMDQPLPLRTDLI
Method: as §4, §5, §6
(§7) Cells grown in complete media were treated with various concentrations of a compound of the disclosure or DMSO control. […] After 20 h incubation, IRF activity was assessed using QUANTI-luc to measure levels of Lucia and NF-kB activity was determined by measure SEAP levels at 620-655 nm. % induction was calculated from fold change in luminescence/absorbance compared to DMSO treated sample. […]

wild type STING = target: T2, wild type STING (Homo sapiens, UniProt Q86WV6, H232R); assay: IRF/NF-kB reporter cells, wild type STING; conditions: 20 hours
T2 construct: expressed in transfected cells; host or cells: THP1-Dual-KI-STING-R232 (made from THP-Dual-STING KO cells)
Method: as §4, §5, §6, §7

[1] = test system: mouse bone marrow derived dendritic cells (DCs) and macrophages; assay: ISG gene expression (Taqman) in mouse bone marrow derived dendritic cells and macrophages; conditions: 20 hours
Method: FIG. 23 depicts cryopreserved mouse bone marrow derived dendritic cells (DCs) and macrophages treated with a range of concentrations of compound 2 or DMSO control for 20 hours. Cell pellets were harvested to collect total RNA. The gene expression levels of ISGs were measured by Taqman Assays.

[2] = target: T3, R71H-G230A-R293Q (HAQ) variant of hSTING (Homo sapiens, UniProt Q86WV6, G230A/H232R/R293Q/R71H); assay: IRF/NF-kB reporter cells, STING HAQ variant; conditions: 20 hours
T3 construct: THP1-Dual-WT cells express STING-HAQ variant; endogenous in cells; host or cells: THP1-Dual-WT cells
Method: as §4, §5, §6, §7

[3] = test system: RAW-Lucia-ISG-STING KO cells; assay: IRF-type I IFN secreted luciferase in RAW-Lucia-ISG-STING KO cells; conditions: compound alone, 19 hours
Method: FIG. 4 depicts RAW-Lucia-ISG-WT and RAW-Lucia-ISG-STING KO cells were stimulated with compound 2 or compound 4, alone for 19 hours. Activity of secreted luciferase (IRF-type I IFN activity) in cell culture supernatant was measured using Invivogen's Quanti-luc. Data is shown as fold induction over DMSO treated cells (mean±standard deviation of triplicate wells per stimulant). EC50 values were calculated using XLfit.

[4] = Homo sapiens, THP-1, 20 h incubation

T3 sequence (Q86WV6 whole entry R71H/G230A/H232R/R293Q): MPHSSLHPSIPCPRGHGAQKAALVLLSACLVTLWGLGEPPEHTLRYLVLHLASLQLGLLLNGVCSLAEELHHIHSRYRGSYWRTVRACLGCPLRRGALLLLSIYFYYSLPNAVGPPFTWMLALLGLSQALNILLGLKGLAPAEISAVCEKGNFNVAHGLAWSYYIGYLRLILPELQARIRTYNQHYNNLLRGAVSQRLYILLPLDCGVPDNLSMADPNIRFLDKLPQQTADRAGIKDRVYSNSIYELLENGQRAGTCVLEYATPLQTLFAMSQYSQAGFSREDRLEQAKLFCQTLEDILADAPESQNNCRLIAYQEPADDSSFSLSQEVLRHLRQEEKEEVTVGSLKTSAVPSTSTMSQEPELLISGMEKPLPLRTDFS
T2 sequence (Q86WV6 whole entry H232R): as the sequence (Q86WV6 whole entry R71H/G230A/H232R/R293Q) above, with H71R, A230G, Q293R counted along it

| Structure (SMILES) | EC50 (NF-κβ; [4]) | EC50 (IRF; [4]) | IRF activity in STING KO cells (STING KO cells) | NF-κβ in STING KO cells (STING KO cells) | STING dependence of activity (STING KO cells) | activity against wt-mSTING (wt-mSTING) | activity against wild type STING (wild type STING) | ISG expression [1] | EC50 (NF-κβ; 20 h incubation) | EC50 (IRF; 20 h incubation) | activity against R71H-G230A-R293Q (HAQ) variant of hSTING [2] | IRF activity in STING KO cells [3] |
| --- | --- | --- | --- | --- | --- | --- | --- | --- | --- | --- | --- | --- |
| Nc1ncnc2c1ncn2[C@@H]1O[C@@H]2COP(=O)(O)O[C@H]3[C@@H](F)[C@H](n4ccc(=O)[nH]c4=O)O[C@@H]3COP(=O)(O)O[C@@H]1[C@@H]2F [Compound 1] | > 2 µM | > 2 µM | did not induce | did not induce | possess STING dependent activity |  |  |  |  |  |  |  |
| CCCCCCCCCCOc1ccc(C(=O)Oc2ccc(CSP3(=O)OC[C@H]4O[C@@H](n5cnc6c(N)ncnc65)[C@H](OP(=O)(O)OC[C@H]5O[C@@H](n6ccc(=O)[nH]c6=O)[C@H](F)[C@@H]5O3)[C@@H]4F)cc2)cc1 (some centres unmarked) [Compound 2] |  |  | did not induce | did not induce |  | possess activity | possess activity | induces ISG expression | 1 to 2 µM | < 0.05 µM | possess activity | Neither compound induced IRF activity |
